Measurements published in patent US20210038515A1 (Azurity Pharmaceuticals, Inc., priority 2014, published 2021).

Tested on: Clostridium difficile
Experiment: Agar dilution MIC of vancomycin preparations (Sigma, Cutis), diluent, Na benzoate and Na citrate
Format: cell-based
Conditions: for MIC, AV (average): average of triplicate; for MIC, VAN-1: replicate 1; for MIC, VAN-2: replicate 2; for MIC, VAN-3: replicate 3
Protocol: Introduction: The purpose of the study was to compare the MICs obtained with the formulation of vancomycin HCL of the invention (Cutis) to formulations obtained using a vancomycin HCL reference standard powder obtained from Sigma. The Example also involves the analysis of a solution or diluent to determine if it has antimicrobial activity at the concentrations present in the agar dilution test.
The C. difficile were tested by agar dilution according to the procedures in the Clinical and Laboratory Standards Institute. 2012. Methods for antimicrobial susceptibility testing of anaerobic bacteria; approved standard-seventh edition.
Other anaerobic organisms included clinical isolates of Bifidobacterium adolescentis and Bacteroides fragilis. Clostridium difficile ATCC 700057 was included as a quality control strain.
The C. difficile isolates were recovered from patients with CDI during the past two years and stored at −70° C. in 20% skim milk. Ribotyping was performed by another reference laboratory. The strains were taken from the freezer and subcultured at least twice to ensure purity and good growth.
On the day of testing, they were suspended in Brucella broth to the turbidity of the 0.5 McFarland standard for testing.
Stock solution of the Sigma vancomycin was prepared in water and stored at −70° C. On the day of testing, it was thawed and further diluted in water to obtain the desired range of 16-0.125 μg/ml. The Cutis vancomycin (25 mg/ml) was reconstituted on the day of testing and further diluted for a final range of 16-0.125 μg/ml in the test. The antimicrobials were added to molten Brucella agar supplemented with vitamin K and hemin to prepare the plates. Drug-free growth controls were included for testing before and after each set of plates. All testing was done in triplicate.
The organisms were pipetted into the wells of the Steers replicator head and applied to the plates with the multi-pronged replicator. The final concentration of organisms was ˜10^5 CFU/spot.
The plates were incubated in the anaerobic chamber incubator for 44 h and examined for growth.
The Cutis diluent comprises: water, about 0.12% (w/v) citric acid (anhydrous), 0.2% (w/v) sucralose, about 0.05% (w/v) artificial grape flavor, 0.1% (w/v) sodium benzoate, about 0.0002% (w/v) D&C Yellow No. 10 and about 0.000038% (w/v) FD&C Red No. 40.

[1] = ATCC 700057 quality control strain, first set (r41)
[2] = ATCC 700057 quality control strain, second set (r74)

CN[C@H](CC(C)C)C(=O)N[C@H]1C(=O)N[C@@H](CC(N)=O)C(=O)N[C@H]2C(=O)N[C@H]3C(=O)N[C@H](C(=O)N[C@H](C(=O)O)c4cc(O)cc(O)c4-c4cc3ccc4O)[C@H](O)c3ccc(c(Cl)c3)Oc3cc2cc(c3O[C@@H]2O[C@H](CO)[C@@H](O)[C@H](O)[C@H]2O[C@H]2C[C@](C)(N)[C@H](O)[C@H](C)O2)Oc2ccc(cc2Cl)[C@H]1O.Cl [Sigma]
MIC, AV (average) [1]: 2 µg/mL
MIC, VAN-1 [1]: 2 µg/mL
MIC, VAN-2 [1]: 2 µg/mL
MIC, VAN-3 [1]: 2 µg/mL
MIC, AV (average) [2]: 2 µg/mL
MIC, VAN-1 [2]: 2 µg/mL
MIC, VAN-2 [2]: 2 µg/mL
MIC, VAN-3 [2]: 2 µg/mL
MIC, AV (average) (RMA 24504, ribotype 027): 2 µg/mL
MIC, VAN-1 (RMA 24504, ribotype 027): 2 µg/mL
MIC, VAN-2 (RMA 24504, ribotype 027): 2 µg/mL
MIC, VAN-3 (RMA 24504, ribotype 027): 2 µg/mL
MIC, AV (average) (RMA 24510, ribotype 027): 1.7 µg/mL
MIC, VAN-1 (RMA 24510, ribotype 027): 2 µg/mL
MIC, VAN-2 (RMA 24510, ribotype 027): 2 µg/mL
MIC, VAN-3 (RMA 24510, ribotype 027): 1 µg/mL
MIC, AV (average) (RMA 24519, ribotype 027): 1.7 µg/mL
MIC, VAN-1 (RMA 24519, ribotype 027): 2 µg/mL
MIC, VAN-2 (RMA 24519, ribotype 027): 2 µg/mL
MIC, VAN-3 (RMA 24519, ribotype 027): 1 µg/mL
MIC, AV (average) (RMA 24527, ribotype 014): 2 µg/mL
MIC, VAN-1 (RMA 24527, ribotype 014): 2 µg/mL
MIC, VAN-2 (RMA 24527, ribotype 014): 2 µg/mL
MIC, VAN-3 (RMA 24527, ribotype 014): 2 µg/mL
MIC, AV (average) (RMA 24529, ribotype 014): 2 µg/mL
MIC, VAN-1 (RMA 24529, ribotype 014): 2 µg/mL
MIC, VAN-2 (RMA 24529, ribotype 014): 2 µg/mL
MIC, VAN-3 (RMA 24529, ribotype 014): 2 µg/mL
MIC, AV (average) (RMA 24541, ribotype 020): 1.7 µg/mL
MIC, VAN-1 (RMA 24541, ribotype 020): 1 µg/mL
MIC, VAN-2 (RMA 24541, ribotype 020): 2 µg/mL
MIC, VAN-3 (RMA 24541, ribotype 020): 2 µg/mL
MIC, AV (average) (RMA 24543, ribotype 020): 1.3 µg/mL
MIC, VAN-1 (RMA 24543, ribotype 020): 1 µg/mL
MIC, VAN-2 (RMA 24543, ribotype 020): 1 µg/mL
MIC, VAN-3 (RMA 24543, ribotype 020): 2 µg/mL
MIC, AV (average) (RMA 24547, ribotype 014): 1 µg/mL
MIC, VAN-1 (RMA 24547, ribotype 014): 1 µg/mL
MIC, VAN-2 (RMA 24547, ribotype 014): 1 µg/mL
MIC, VAN-3 (RMA 24547, ribotype 014): 1 µg/mL
MIC, AV (average) (RMA 24560, ribotype 078): 1.7 µg/mL
MIC, VAN-1 (RMA 24560, ribotype 078): 2 µg/mL
MIC, VAN-2 (RMA 24560, ribotype 078): 2 µg/mL
MIC, VAN-3 (RMA 24560, ribotype 078): 1 µg/mL
MIC, AV (average) (RMA 24561, ribotype 078): 2 µg/mL
MIC, VAN-1 (RMA 24561, ribotype 078): 2 µg/mL
MIC, VAN-2 (RMA 24561, ribotype 078): 2 µg/mL
MIC, VAN-3 (RMA 24561, ribotype 078): 2 µg/mL
MIC, AV (average) (RMA 24567, ribotype 020): 2 µg/mL
MIC, VAN-1 (RMA 24567, ribotype 020): 2 µg/mL
MIC, VAN-2 (RMA 24567, ribotype 020): 2 µg/mL
MIC, VAN-3 (RMA 24567, ribotype 020): 2 µg/mL
MIC, AV (average) (RMA 24575, ribotype 078): 2.7 µg/mL
MIC, VAN-1 (RMA 24575, ribotype 078): 2 µg/mL
MIC, VAN-2 (RMA 24575, ribotype 078): 4 µg/mL
MIC, VAN-3 (RMA 24575, ribotype 078): 2 µg/mL
MIC, AV (average) (RMA 24594, ribotype 106): 3.3 µg/mL
MIC, VAN-1 (RMA 24594, ribotype 106): 4 µg/mL
MIC, VAN-2 (RMA 24594, ribotype 106): 2 µg/mL
MIC, VAN-3 (RMA 24594, ribotype 106): 4 µg/mL
MIC, AV (average) (RMA 24601, ribotype 106): 2 µg/mL
MIC, VAN-1 (RMA 24601, ribotype 106): 2 µg/mL
MIC, VAN-2 (RMA 24601, ribotype 106): 2 µg/mL
MIC, VAN-3 (RMA 24601, ribotype 106): 2 µg/mL
MIC, AV (average) (RMA 24605, ribotype 002): 2 µg/mL
MIC, VAN-1 (RMA 24605, ribotype 002): 2 µg/mL
MIC, VAN-2 (RMA 24605, ribotype 002): 2 µg/mL
MIC, VAN-3 (RMA 24605, ribotype 002): 2 µg/mL
MIC, AV (average) (RMA 24607, ribotype 106): 2 µg/mL
MIC, VAN-1 (RMA 24607, ribotype 106): 2 µg/mL
MIC, VAN-2 (RMA 24607, ribotype 106): 2 µg/mL
MIC, VAN-3 (RMA 24607, ribotype 106): 2 µg/mL
MIC, AV (average) (RMA 24608, ribotype 002): 2 µg/mL
MIC, VAN-1 (RMA 24608, ribotype 002): 2 µg/mL
MIC, VAN-2 (RMA 24608, ribotype 002): 2 µg/mL
MIC, VAN-3 (RMA 24608, ribotype 002): 2 µg/mL
MIC, AV (average) (RMA 24615, ribotype 005): 2 µg/mL
MIC, VAN-1 (RMA 24615, ribotype 005): 2 µg/mL
MIC, VAN-2 (RMA 24615, ribotype 005): 2 µg/mL
MIC, VAN-3 (RMA 24615, ribotype 005): 2 µg/mL
MIC, AV (average) (RMA 24628, ribotype 012): 2 µg/mL
MIC, VAN-1 (RMA 24628, ribotype 012): 2 µg/mL
MIC, VAN-2 (RMA 24628, ribotype 012): 2 µg/mL
MIC, VAN-3 (RMA 24628, ribotype 012): 2 µg/mL
MIC, AV (average) (RMA 24641, ribotype 001/072): 2 µg/mL
MIC, VAN-1 (RMA 24641, ribotype 001/072): 2 µg/mL
MIC, VAN-2 (RMA 24641, ribotype 001/072): 2 µg/mL
MIC, VAN-3 (RMA 24641, ribotype 001/072): 2 µg/mL
MIC, AV (average) (RMA 24643, ribotype 001/072): 2 µg/mL
MIC, VAN-1 (RMA 24643, ribotype 001/072): 2 µg/mL
MIC, VAN-2 (RMA 24643, ribotype 001/072): 2 µg/mL
MIC, VAN-3 (RMA 24643, ribotype 001/072): 2 µg/mL
MIC, AV (average) (RMA 24646, ribotype 001/072): 2 µg/mL
MIC, VAN-1 (RMA 24646, ribotype 001/072): 2 µg/mL
MIC, VAN-2 (RMA 24646, ribotype 001/072): 2 µg/mL
MIC, VAN-3 (RMA 24646, ribotype 001/072): 2 µg/mL
MIC, AV (average) (RMA 24655, ribotype 005): 2 µg/mL
MIC, VAN-1 (RMA 24655, ribotype 005): 2 µg/mL
MIC, VAN-2 (RMA 24655, ribotype 005): 2 µg/mL
MIC, VAN-3 (RMA 24655, ribotype 005): 2 µg/mL
MIC, AV (average) (RMA 24678, ribotype 012): 4 µg/mL
MIC, VAN-1 (RMA 24678, ribotype 012): 4 µg/mL
MIC, VAN-2 (RMA 24678, ribotype 012): 4 µg/mL
MIC, VAN-3 (RMA 24678, ribotype 012): 4 µg/mL
MIC, AV (average) (RMA 24683, ribotype 027): 2 µg/mL
MIC, VAN-1 (RMA 24683, ribotype 027): 2 µg/mL
MIC, VAN-2 (RMA 24683, ribotype 027): 2 µg/mL
MIC, VAN-3 (RMA 24683, ribotype 027): 2 µg/mL
